Test [1] concerns the target KRAS protein containing G12D mutation (Homo sapiens (Human), UniProt P01116, G12D). Briefly: SOS-catalyzed nucleotide exchange assay (GNE), TR-FRET. The following applies: biotinylated KRAS G12D, SOS and GTP, 60-minute incubation. In kind it is biochemical. The protocol: Compounds are added to this complex and then after a 60-minute incubation time the mixture is treated with SOS and unlabeled GTP. Small molecule inhibitors stabilize the Bodipy-GDP complex whereas the untreated protein rapidly exchanges Bodipy-GDP for unlabeled GTP resulting in reduced TR-FRET signal.
This solution is referred to as biotinylated KRAS G12D stock solution.

The test system of test [2] is AsPC-1 cells containing homozygous KRAS-G12D activating mutation. Briefly: Cellular phospho-ERK assay (Examples 1a-106). In kind it is cell-based. The settings on record: AsPC-1 cells, 2 hours, ratio of p-Erk vs total Erk, read-out: IC50 (nM) pERK (Cell). An excerpt:
5% CO? overnight. […] Assay plates were read on a EnVision Multimode Plate Reader (PerkinElmer) and the ratio of p-Erk vs total Erk in each well was used as the final readout.

The test system is the same in test [3]. Briefly: Cellular phospho-ERK assay with 10% FBS (Examples 107a-256). The following applies: Homo sapiens, ASPC1, 2 h, read-out: IC50 (nM) pERK (cell with FBS 10%), AsPC-1 cells, 10% fetal bovine serum, 2 hours, ratio of p-Erk vs total Erk. In kind it is cell-based. The protocol:
5% CO2 for 2 hours. […] Assay plates were read on a EnVision Multimode Plate Reader (PerkinElmer) and the ratio of p-Erk vs total Erk in each well was used as the final readout.

Where a name gives a salt, the structure may show the parent alone.

The record followed here is patent US20240239788A1, “SMALL MOLECULE INHIBITORS OF KRAS G12D MUTANT” (Merck Sharp & Dohme LLC, priority 2021, published 2024).

Chain of KRAS protein containing G12D mutation (P01116 other isoform, or with tags, fused parts or gaps G12D (already in the parent)): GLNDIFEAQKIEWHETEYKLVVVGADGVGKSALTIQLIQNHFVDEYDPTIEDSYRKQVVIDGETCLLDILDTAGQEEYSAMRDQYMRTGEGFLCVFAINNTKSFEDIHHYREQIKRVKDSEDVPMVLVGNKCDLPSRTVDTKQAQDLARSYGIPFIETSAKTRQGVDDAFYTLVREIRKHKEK

Consider `CN(C)C[C@@]1(COc2nc(N3C[C@H]4CC[C@@](C)(C3)N4)c3cc(Cl)c(-c4c(F)cc(F)c5ccc(N)nc45)c(F)c3n2)CC1(F)F` (single isomer, unassigned) [92a], for which the IC50 in test [1] was determined as 11100 nM; in test [2], 13200 nM.

On to `C#Cc1cccc2cc(O)cc(-c3c(F)cc4c(N5C[C@H]6CC[C@@](C)(C5)N6)nc(OCC5(CN6CC[C@@H](F)C6)CC5)nc4c3F)c12` (single isomer, unassigned) [103b, TFA], for which the IC50 in test [1] came to 458 nM; in test [2] (TFA) it was 2480 nM.

For the compound `Cc1c(Cl)cc2[nH]nc(C)c2c1-c1c(F)cc2c(N3CC4CCC(C3)N4)nc(OCC3(CN4CC[C@@H](F)C4)CC3)nc2c1F` (single isomer, unassigned) [Ex 71a], the IC50 in test [1] stood at 18.9 nM; in test [2], 505 nM.

`Cc1c(Cl)cc2[nH]nc(C)c2c1-c1c(F)cc2c(N3CC4CCC(C3)N4)nc(OCC3(CN4CC[C@@H](F)C4)CC3)nc2c1F` (single isomer, unassigned) [Ex 71b]: the IC50 in test [1] came out at 1340 nM; in test [2], 4240 nM.

`Cc1cc2[nH]ncc2c(-c2c(F)cc3c(N4C[C@H]5CC[C@@](C)(C4)N5)nc(OC[C@]4(CN(C)C)CC4(F)F)nc3c2F)c1C(F)(F)F` (single isomer, unassigned) [Ex 76b]: the IC50 in test [1] came out at 597 nM; in test [2], 4530 nM.

Turning to `Cc1cc2[nH]ncc2c(-c2c(F)cc3c(N4C[C@H]5CC[C@@](C)(C4)N5)nc(OCC4(CN5CC[C@@H](F)C5)CC4)nc3c2F)c1C(F)(F)F` (single isomer, unassigned) [Ex 80b], the IC50 turned out to be 1320 nM in test [1] and 5970 nM in test [2].

As for `Oc1cc(-c2c(F)cc3c(N4CC5CC(F)C(C4)N5)nc(OCC4(CN5CCOCC5)CC4)nc3c2F)c2ccccc2c1` (single isomer, unassigned) [Ex. 3a, 4-(6,8-difluoro-4-(6-fluoro-3,8-diazabicyclo[3.2.1]octan-3-yl)-2-((1-(morpholinomethyl)cyclopropyl)methoxy)quinazolin-7-yl)naphthalen-2-ol], the figures for the IC50 in test [1] and in test [2] were 506 nM and 3610 nM, respectively.

As to `Oc1cc(-c2c(F)cc3c(N4CC5CC(F)C(C4)N5)nc(OCC4(CN5CCOCC5)CC4)nc3c2F)c2ccccc2c1` (single isomer, unassigned) [Ex. 3b, 4-(6,8-difluoro-4-(6-fluoro-3,8-diazabicyclo[3.2.1]octan-3-yl)-2-((1-(morpholinomethyl)cyclopropyl)methoxy)quinazolin-7-yl)naphthalen-2-ol], the IC50 in test [1] was 2160 nM; in test [2], 8240 nM.

Regarding `C#Cc1cccc2cc(O)cc(-c3c(F)cc4c(N5C[C@H]6CC[C@@](C)(C5)N6)nc(OC[C@]5(CO)CC5(F)F)nc4c3F)c12` (single isomer, unassigned) [Ex. 90], the IC50 was 0.565 nM in test [1] and 564 nM in test [2] (Homo sapiens, ASPC1, 2 h).

For the compound `C[C@]12CC[C@H](CN(c3nc(OCC4(CN5CCOCC5)CC4)nc4c(F)c(-c5c(F)cc(F)c6ccc(N)nc56)c(Cl)cc34)C1)N2` (single isomer, unassigned) [Ex. 91a], the IC50 in test [1] was 11100 nM; in test [2] it was 17600 nM.

As for `C[C@]12CC[C@H](CN(c3nc(OCC4(CN5CCOCC5)CC4)nc4c(F)c(-c5c(F)cc(F)c6ccc(N)nc56)c(Cl)cc34)C1)N2` (single isomer, unassigned) [Ex. 91b], the figures for the IC50 in test [1] and in test [2] were 1020 nM and 4160 nM, respectively.

`Cc1cc2[nH]ncc2c(C2Cc3nc(OC[C@]4(CN(C)C)CC4(F)F)nc(N4C[C@H]5CC[C@@](C)(C4)N5)c3C(=O)O2)c1C(F)(F)F` (single isomer, unassigned) [Ex. 96a]: the IC50 in test [1] was found to be 1280 nM; in test [2], 20800 nM.

`CN(C)C1CC[C@H]2C[C@@]12COc1nc(N2C[C@H]3CC[C@@](C)(C2)N3)c2cc(F)c(-c3cc(O)cc4ccccc34)c(F)c2n1` (single isomer, unassigned) [Example 12a]: the IC50 in test [1] was 1.89 nM; in test [2] it was 396 nM.

In the case of `CN(C)C1CC[C@H]2C[C@@]12COc1nc(N2C[C@H]3CC[C@@](C)(C2)N3)c2cc(F)c(-c3cc(O)cc4ccccc34)c(F)c2n1` (single isomer, unassigned) [Example 12b], the IC50 in test [1] turned out to be 2.07 nM; in test [2], 841 nM.

As to `CN(C)CC1(COc2nc(N3CC4CC(O)C(C3)N4)c3cc(Cl)c(-c4cc(O)cc5ccccc45)c(F)c3n2)CC1` (single isomer, unassigned) [Example 19a], the IC50 in test [1] was found to be 1180 nM; in test [2] (Homo sapiens, ASPC1, 2 h) it was 50800 nM.

For the compound `CN(C)CC1(COc2nc(N3CC4CC(O)C(C3)N4)c3cc(Cl)c(-c4cc(O)cc5ccccc45)c(F)c3n2)CC1` (single isomer, unassigned) [Example 19b], the figures for the IC50 in test [1] and in test [2] were 1790 nM and 50800 nM, respectively.

As for `CN(C)CC1(COc2nc(N3CC4CC(O)C(C3)N4)c3cc(Cl)c(-c4cc(O)cc5ccccc45)c(F)c3n2)CC1` (single isomer, unassigned) [Example 22a, 3-(6-chloro-2-((1-((dimethyl-amino)methyl)cyclo-propy)methoxy)-8-fluoro-7-(3-hydroxy-naphthalen-1-yl)quinazolin-4-yl)-3,8-diazabicyclo[3.2.1]oc tan-6-ol], the figures for the IC50 in test [1] and in test [2] were 5090 nM and 50800 nM, respectively.

Consider `CN(C)CC1(COc2nc(N3CC4CC(O)C(C3)N4)c3cc(Cl)c(-c4cc(O)cc5ccccc45)c(F)c3n2)CC1` (single isomer, unassigned) [Example 23, 3-(6-chloro-2-((1-((dimethyalmino)meth-yl)cyclopropyl)meth-oxy)-8-fluoro-7-(3-hydroxynaphthalen-1-yl)quinazolin-4-yl)-3,8-diazabicyclo[3.2.1]oc-tan-6-ol], for which the IC50 was found to be 4280 nM in test [1] and 44800 nM in test [2].

Turning to `CN(C)CC1(COc2nc(N3C[C@@]4(C)CC[C@H]3CN4)c3cc(Cl)c(-c4cc(O)cc5ccccc45)c(F)c3n2)CC1` (single isomer, unassigned) [Example 38b], the figures for the IC50 in test [1] and in test [2] were 3400 nM and 22200 nM, respectively.

In the case of `Cc1cc2[nH]ncc2c(-c2c(F)cc3c(N4CC5CCC(C4)N5)nc(OCC4(CN(C)C)CC4(F)F)nc3c2F)c1C` (single isomer, unassigned) [Example 66a, 1-(1-(((4-(3,8-diazabicyclo [3.2.1]octan-3-yl)-7-(5,6-dimethyl-1H-indazol-4-yl)-6,8-difluoroquinazolin-2-yl)oxy)methyl)-2,2-difluorocyclopropyl)-N,N-dimethylmethanamine], the IC50 in test [1] is 54 nM; in test [2] (Homo sapiens, ASPC1, 2 h) it was 3460 nM.

Turning to `[2H]c1c([2H])c(C#C)c2c(-c3c(F)cc4c(N5C[C@H]6CC[C@@](C)(C5)N6)nc(OC[C@@]56CCCN5C[C@H](F)C6)nc4c3F)c([2H])c([2H])c([2H])c2c1[2H]` [compound 241, 7-(8-ethynylnaphthalen-1-yl-2,3,4,5,6,7-d6)-6,8-difluoro-2-(((2R,7aS)-2-fluorotetrahydro-1H-pyrrolizin-7a(5H)-yl)methoxy)-4-((1S,5R)-1-methyl-3,8-iazabicyclo[3.2.1]octan-3-yl)quinazoline, 2TFA], the results for the IC50 in test [1] and in test [3] were 8.63 nM and 1760 nM, respectively.

Regarding `C[C@]12CCC(CN(c3nc(OC[C@@]45CCCN4C[C@H](F)C5)nc4c(F)c(-c5cc(O)cc(Cl)c5OC(F)(F)F)c(F)cc34)C1)N2` [compound 244, 3-chloro-5-(6,8-difluoro-2-(((2RS,7aS)-2-fluorotetrahydro-1H-pyrrolizin-7a(5H)-yl)methoxy)-4-((1S,5R)-1-methyl-3,8-diazabicyclo[3.2.1]octan-3-yl)quina-zolin-7-yl)-4-(trifluoromethoxy)phenol], the IC50 in test [1] is 3.7 nM; in test [3], 161 nM.

With `Cc1cc2[nH]nc(C#N)c2c(-c2c(F)cc3c(N4C[C@H]5CC[C@@H](C4)N5)nc(OC[C@@]45CCCN4C[C@H](F)C5)nc3c2F)c1C(F)F` [compound 254, 4-(4-((1R,5S)-3,8-diazabicyclo[3.2.1]octan-3-yl)-6,8-difluoro-2-(((2R,7aS)-2-fluorotetrahydro-1H-pyrrolizin-7a(5H)-yl)methoxy)quinazolin-7-yl)-5-(difluoromethyl)-6-methyl-1H-indazole-3-carbonitrile], the IC50 was found to be 0.77 nM in test [1] and 80.3 nM in test [3].

`Cc1cc2[nH]nc(C#N)c2c(-c2c(F)cc3c(N4C[C@H]5CC[C@@H](C4)N5)nc(OC[C@@]45CCCN4C[C@H](F)C5)nc3c2F)c1OC(F)(F)Cl` [compound 255, 4-(4-((1R,5S)-3,8-diazabicyclo[3.2.1]octan-3-yl)-6,8-difluoro-2-(((2R,7aS)-2-fluorotetrahydro-1H-pyrrolizin-7a(5H)-yl)methoxy)quinazolin-7-yl)-5-(chlorodifluoromethoxy)-6-methyl-1H-indazole-3-carbonitrile]: the IC50 amounted to 0.79 nM in test [1] and 58.9 nM in test [3].
